Assay results taken from paper PMC9525273 (Nature Communications, 2022).

Experiments:
[1] = target: T1, TgATP4^G419S-HA (membranes from T. gondii tachyzoites) (Toxoplasma gondii, UniProt B9QMJ0, G419S); test: Membrane ATPase assay, ATP4-associated (Na+-dependent) ATPase activity; assay type: biochemical; conditions: for IC50 for ATP4-associated ATPase activity: membranes from TgATP4G419S-HA, mean ± SEM
T1 sequence (B9QMJ0 1-1338 G419S): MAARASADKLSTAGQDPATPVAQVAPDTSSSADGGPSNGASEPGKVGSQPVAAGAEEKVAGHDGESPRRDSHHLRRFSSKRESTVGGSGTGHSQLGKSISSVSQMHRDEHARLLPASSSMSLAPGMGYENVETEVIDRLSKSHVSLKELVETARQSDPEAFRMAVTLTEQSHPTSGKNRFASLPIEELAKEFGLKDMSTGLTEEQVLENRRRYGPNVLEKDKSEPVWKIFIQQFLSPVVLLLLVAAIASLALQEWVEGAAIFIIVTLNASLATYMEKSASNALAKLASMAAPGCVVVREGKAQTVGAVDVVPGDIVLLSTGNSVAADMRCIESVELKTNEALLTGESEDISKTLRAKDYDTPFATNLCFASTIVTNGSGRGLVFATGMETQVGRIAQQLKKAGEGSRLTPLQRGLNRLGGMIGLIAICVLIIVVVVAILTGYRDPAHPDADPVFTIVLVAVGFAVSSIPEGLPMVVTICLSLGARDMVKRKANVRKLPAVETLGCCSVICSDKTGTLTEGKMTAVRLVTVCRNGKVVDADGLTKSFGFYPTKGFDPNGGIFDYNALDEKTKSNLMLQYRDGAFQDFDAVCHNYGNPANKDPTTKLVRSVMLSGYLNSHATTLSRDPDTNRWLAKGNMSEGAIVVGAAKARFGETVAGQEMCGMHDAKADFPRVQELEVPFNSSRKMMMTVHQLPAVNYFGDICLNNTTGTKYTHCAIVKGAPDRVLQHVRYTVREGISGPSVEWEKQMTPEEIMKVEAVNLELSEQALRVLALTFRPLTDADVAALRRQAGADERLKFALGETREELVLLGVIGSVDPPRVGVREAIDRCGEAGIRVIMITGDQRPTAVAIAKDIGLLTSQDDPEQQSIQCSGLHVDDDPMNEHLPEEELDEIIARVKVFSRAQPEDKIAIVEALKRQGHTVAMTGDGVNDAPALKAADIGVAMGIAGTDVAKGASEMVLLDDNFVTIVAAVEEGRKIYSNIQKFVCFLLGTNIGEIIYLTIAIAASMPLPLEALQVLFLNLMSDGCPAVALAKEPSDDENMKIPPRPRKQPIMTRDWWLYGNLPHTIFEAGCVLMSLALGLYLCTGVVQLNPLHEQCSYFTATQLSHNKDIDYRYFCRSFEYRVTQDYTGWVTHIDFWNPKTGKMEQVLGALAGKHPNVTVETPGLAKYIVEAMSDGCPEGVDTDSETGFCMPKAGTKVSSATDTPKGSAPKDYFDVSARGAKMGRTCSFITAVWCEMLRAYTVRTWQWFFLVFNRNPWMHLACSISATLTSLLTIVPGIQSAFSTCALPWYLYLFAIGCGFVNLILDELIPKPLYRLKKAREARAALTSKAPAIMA
Method: Membranes from isolated P. falciparum or extracellular T. gondii parasites were prepared by lysing parasites in ice-cold deionized water containing a 1:500 dilution of Protease Inhibitor Cocktail Set III (Merck Millipore), then washing the membrane preparation three times in ice-cold deionized water (with protease inhibitors present for the first two washes)[15]. Protein concentrations in the membrane preparations were measured using a Bradford assay. The PiColorLock Gold Phosphate Detection System (Innova Biosciences) was used to measure the production of Pi from hydrolysis of ATP[15]. Membrane preparations were diluted in either a high Na^+ solution (yielding final conditions in the reactions of 150 mM NaCl, 20 mM KCl, 2 mM MgCl2, 50 mM Tris, pH 7.2) or a Na^+-free solution (yielding final conditions of 150 mM choline chloride, 20 mM KCl, 2 mM MgCl2, 50 mM Tris, pH 7.2) to achieve a total protein concentration of 50 μg/mL. […] The reactions were performed at 37 °C, and were initiated by the addition of 1 mM ATP (Na2ATP۰3H2O; MP Biomedicals) and terminated 10 min later by adding 100 μL of reaction mixture (in duplicate) to 25 μL “Gold mix” in a 96-well plate. “Stabiliser” was added 3 min later, and the plates incubated at room temperature in the dark for 60 min before measuring absorbance at 635 nm. Background values (averaged from wells containing all components, but to which ATP was not added until after the membrane was exposed to Gold mix) were subtracted from the data. For each treatment, the ATPase activity associated with the (Na^+-dependent) PfATP4 and TgATP4 proteins was calculated by subtracting data obtained in the low Na^+ condition (containing only the 2 mM Na^+ introduced on addition of 1 mM Na2ATP) from that obtained in the high Na^+ condition.

[2] = system: parasite lines with a G358S mutation in PfATP4; test: P. falciparum proliferation assays, statements on all lines with the G358S mutation; assay type: cell-based, Plasmodium falciparum
Method: (§1) Two types of parasite proliferation assays were employed in this study, with both yielding highly consistent results. For the NF54-based lines and Dd2-B2-PfATP4^G358S and its parent, assays were initiated with cultures containing predominantly ring-stage parasites with a parasitaemia of 0.3% and a haematocrit of 1%. All assays using NF54 were performed in culture media containing 10% O + human serum. The duration of the assays was 72 h and the concentration of DMSO was <0.5% (v/v). Serial dilutions of the test compounds were performed using a Tecan D300e digital dispenser, with parasite cultures added manually. Parasite survival was assessed by flow cytometry on an Intellicyt iQue3 (Essen Bioscience), with 1× SYBR Green I (Invitrogen) and 200 nM MitoTracker Deep Red FM (Invitrogen) used to stain the nucleus and the mitochondria in live parasites, respectively. The gating strategy used to quantify parasite survival, performed using FlowJo version 10 (FlowJo LLC.), is illustrated in Supplementary Fig. 9. IC50 and IC90 values were calculated by linear interpolation of the dose-response data.
For experiments with all other parasites, the effects of compounds of interest on parasite proliferation was measured in 96-well plates containing serial dilutions of the compounds in culture medium, with a fluorescent DNA-intercalating dye used to detect surviving parasites. The assays were initiated with erythrocytes infected with predominantly ring-stage parasites, and the starting parasitaemia and haematocrit were both 1%. […] Fluorescence was measured using a FLUOstar OPTIMA plate reader (BMG LABTECH), with OPTIMA version 2.20R2 and MARS Data Analysis Software version 3.01 R2 (BMG LABTECH).

[3] = system: Dd2-B2 parasites; test: P. falciparum proliferation assay (72 h, flow cytometry, SYBR Green I/MitoTracker); assay type: cell-based; conditions: Plasmodium falciparum, DD2, read-out: IC50 value
Method: as §1

[4] = system: Dd2-B2-PfATP4^G358S parasites; test: as above; assay type: cell-based; conditions: Plasmodium falciparum; Dd2-B2-PfATP4G358S; mean ± SEM
Method: as §1

[5] = TgATP4G419S-HA membranes, source data of Table 1 (nM there)

SMILES	IC50 for inhibition of ATP4-associated ATPase activity, MEAN [1, 5]	IC50 for inhibition of ATP4-associated ATPase activity ([1]; TgATP4G419S-HA membranes, single experiments, source data of Table 1 (nM there))	IC50 for ATP4-associated ATPase activity [1]	IC50 ([2]; Plasmodium falciparum, all parasite lines with a G358S mutation in PfATP4 tested in this study) [µM]	IC50 [3] [nM]	IC50 [4] [µM]	effect of the G358S mutation in PfATP4 on parasite susceptibility ([2]; G358S lines vs PfATP4 wild-type controls)
N#Cc1cc(NC(=O)[C@H]2c3ccccc3C(=O)N(CC(F)(F)F)[C@@H]2c2cccnc2)ccc1F [(+)-SJ733]	>4000	>4000	> 4000 (3) nM	> 9	122 ± 7	23 ± 3.2	
C[C@H]1Cc2c([nH]c3cc(Cl)c(F)cc23)[C@@]2(N1)C(=O)Nc1ccc(Cl)cc12 [Cipargamin]	287.6		288 ± 111 (4) (P = 0.05) nM		2.17 ± 0.24	1.64 ± 0.08	
C[C@H]1[C@@H](O)O[C@@H]2O[C@@]3(C)CC[C@H]4[C@H](C)CC[C@@H]1[C@@]24OO3 [Dihydroartemisinin]							no effect
